The values that follow come from patent publication US11759651B2, “In vivo visualization and control of pathological changes in neural circuits” (THE REGENTS OF THE UNIVERSITY OF CALIFORNIA, priority 2011, dated 2023).

Assay [1] relates to hippocampal network activity. To be noted: cited from earlier work.
For assay [2], the system named is APP^L/S mice. The experiment in a line: APP immunolabeling for dystrophic neurites and Thioflavin S staining for amyloid plaques in hippocampus. Type of assay: in vivo. To be noted: APP^L/S mice given vehicle or LM11A-31; transgenic mouse model of AD.
The next assay relates to APPL/S mice. Briefly: Object recognition test. Type of assay: in vivo, mouse. To be noted: ANOVA and post-hoc Student-Neuman-Keuls testing.
The subject of assay [3] is APP^L/S mice. Briefly: Choline acetyltransferase immunostaining of basal forebrain sections. Type of assay: in vivo, mouse. To be noted: APP^L/S mice treated with LM11A-31. The protocol: Scale bars=25 μm. b, Photomicrograph of choline acetyltransferase-immunostained basal forebrain sections. […] Statistical significance was determined using ANOVA and post-hoc Student-Neuman-Keuls testing.

In another assay the test system is APP/PS1 mice. The experiment in a line: LTP in the hippocampus. The following applies: APP/PS1-vehicle vs. APP/PS1-LM11A-31, p=0.02, wt-vehicle vs. wt-LM11A-31, NS. The class given is in vivo, mouse.
The mark [4] stands for this setting: 10 μM NBQX and 25 μM D-AP5 applied together, stimulus pulse applied to DG, 400 μm-thick ventral hippocampal slice.

Where two headings read alike, the source gives them in different places.

`NC(CCCP(=O)(O)O)C(=O)O` [D-AP5]: the VSDI signal entry in assay [1] (setting [4]) is “abolished”.

In the case of `COc1ccc(-c2ccc(=N)n(CCCC(=O)O)n2)cc1` [GABAzine], in assay [1], the VSDI signal result was “confirmed signal extinction”.

On to `CC[C@H](C)[C@H](N)C(=O)NCCN1CCOCC1` [LM11A-31], for which, in the assay with APP^L/S mice [2], the “dystrophic neurites and amyloid plaque formation in the hippocampus” value is listed as “rescued significantly”. In addition, in the assay on APPL/S mice, the object recognition deficits entry is listed as “prevented object recognition deficits”. Besides, in the assay on APP^L/S mice [3], the “length, volume and branching of cholinergic neurites in the basal forebrain” value is “increased length, volume, and branching of cholinergic neurites”. Besides, the LTP entry in the assay on APP/PS1 mice is on record as “normalizes LTP”.

As to `NS(=O)(=O)c1cccc2c1c([N+](=O)[O-])cc1nc(O)c(O)nc12` [NBQX], in assay [1] (setting [4]), the VSDI signal entry is “abolished”.
